# pIC50, pKi: −log10 of the molar value.
# Experiments:
# [1] = Inhibition of Mycobacterium tuberculosis Zmp1
# Chlamydia trachomatis = assay: Bactericidal activity against Chlamydia trachomatis; type: functional
# [2] = system: Mycobacterium tuberculosis; assay: Antibacterial activity against Mycobacterium tuberculosis; type: functional
# Aspergillus = assay: Antifungal activity against Aspergillus; type: functional
# Enterococcus faecalis = assay: Antibacterial activity against Enterococcus faecalis; type: functional
# Chlamydia = assay: Antibacterial activity against Chlamydia; type: functional
# Staphylococcus aureus = assay: Antibiofilm activity against methicillin-resistant Staphylococcus aureus; type: functional
# [3] = system: Staphylococcus epidermidis; assay: Antibiofilm activity against methicillin-resistant Staphylococcus epidermidis; type: functional
# Enterococcus = assay: Antibiofilm activity against vancomycin-resistant Enterococcus; type: functional
# [4] = molecular target: Botulinum neurotoxin type A (Clostridium botulinum, UniProt P0DPI0); assay: Inhibition of Botulinum neurotoxins/A
# Sequence of Botulinum neurotoxin type A (P0DPI0 2-448 limits assumed): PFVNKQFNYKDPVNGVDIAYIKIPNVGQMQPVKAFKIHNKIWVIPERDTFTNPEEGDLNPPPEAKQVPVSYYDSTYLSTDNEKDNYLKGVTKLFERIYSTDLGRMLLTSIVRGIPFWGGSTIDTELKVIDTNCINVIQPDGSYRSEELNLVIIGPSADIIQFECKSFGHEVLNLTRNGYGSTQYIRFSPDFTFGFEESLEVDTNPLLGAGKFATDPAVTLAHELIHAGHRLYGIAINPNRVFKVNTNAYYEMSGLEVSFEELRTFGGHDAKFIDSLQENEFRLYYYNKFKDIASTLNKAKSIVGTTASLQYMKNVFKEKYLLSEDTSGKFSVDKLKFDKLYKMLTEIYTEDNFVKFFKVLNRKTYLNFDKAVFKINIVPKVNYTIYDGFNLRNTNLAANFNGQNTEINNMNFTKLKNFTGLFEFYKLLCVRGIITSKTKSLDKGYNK
# [5] = Inhibition of Aeromonas proteolytica aminopeptidase; parameters: species or system Vibrio proteolyticus
# [6] = Inhibition of Mycobacterium tuberculosis MetAP1a
# [7] = Inhibition of Mycobacterium tuberculosis MetAP1c
# Cryptococcus neoformans = assay: Antifungal activity against Cryptococcus neoformans; type: functional
# Candida = assay: Antibiofilm activity against Candida; type: functional
# Bacillus subtilis = assay: Antibacterial activity against Bacillus subtilis; type: functional
# Salmonella sp. = assay: Antibacterial activity against Salmonella sp.; type: functional
# [8] = molecular target: Botulinum neurotoxin type F (Clostridium botulinum, UniProt P30996); assay: Inhibition of Botulinum neurotoxins/F
# Sequence of Botulinum neurotoxin type F (P30996 1-436 limits assumed): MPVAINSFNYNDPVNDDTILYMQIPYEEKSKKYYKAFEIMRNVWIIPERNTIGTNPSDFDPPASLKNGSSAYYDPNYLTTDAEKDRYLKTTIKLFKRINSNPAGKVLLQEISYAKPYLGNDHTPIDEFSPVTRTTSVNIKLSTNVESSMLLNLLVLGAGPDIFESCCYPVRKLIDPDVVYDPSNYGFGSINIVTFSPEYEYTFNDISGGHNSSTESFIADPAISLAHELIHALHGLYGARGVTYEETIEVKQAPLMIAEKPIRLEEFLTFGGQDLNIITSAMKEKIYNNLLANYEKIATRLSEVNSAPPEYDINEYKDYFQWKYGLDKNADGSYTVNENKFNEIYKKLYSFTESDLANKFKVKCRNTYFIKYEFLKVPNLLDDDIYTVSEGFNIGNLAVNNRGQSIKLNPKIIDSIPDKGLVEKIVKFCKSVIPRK
# Candida albicans = assay: Antibiofilm activity against Candida albicans; type: functional
smiles,measurement,setting,value
CONC(=O)c1ccc2cccc(O)c2n1,pIC50,[1],6.94
O=C(O)c1cn(C2CC2)c2cc(N3CCN(C(=O)c4ccc5cccc(O)c5n4)CC3)c(F)cc2c1=O,MBC,Chlamydia trachomatis,5 µM
Cc1ccc(CNC(=O)c2ccc3ccc(C)nc3c2O)cc1,MIC,[2],> 500 µM
N#Cc1ccc(Nc2nc(Oc3cccc4cccnc34)nc(N3CCN(c4cccc(Cl)c4Cl)CC3)n2)cc1C(F)(F)F,MIC,[2],19.6 µM
same,MIC,Aspergillus,9.8 µM
O=C(CSc1nnc(COc2cccc3cccnc23)n1-c1ccccc1)Nc1nc2cc(F)ccc2s1,MIC,Enterococcus faecalis,28.8 µM
O=C(NNC(c1ccc2cccnc2c1O)c1c[nH]c2ccccc12)c1ccncc1 (stereo unspecified),MIC,[2],122 µM
O=[N+]([O-])c1cc(CN2CCN(c3ccc(F)cc3)CC2)c(O)c2ncccc12,MBC,Chlamydia,3.13 µM
Cc1ccc2ccc(C(=O)NCc3ccccc3)c(O)c2n1,MIC,[2],> 500 µM
Oc1c(Br)cc(Br)c2ccc(CNc3ccc(F)cc3)nc12,MBEC,Staphylococcus aureus,93.8 µM
same,MBEC,[3],5.9 µM
same,MBEC,Enterococcus,1 µM
O=S(=O)(NC(c1cccc(F)c1)c1cc(Cl)c2cccnc2c1O)c1ccccc1 (stereo unspecified),pIC50,[4],5.24
O=[N+]([O-])c1ccc(O)c2ncccc12 [NITROXOLINE],pIC50,[5],4.54
O=C(NCCCc1ccccc1)c1ccc2cccc(O)c2n1,pIC50,[1],< 5.00
Oc1cccc2ccc(Nc3ccccc3)nc12,MIC,[2],> 20 µM
COc1ccc(CNC(=O)c2ccc3ccc(C)nc3c2O)cc1,MIC,[2],> 500 µM
Clc1cc2c(c3ncccc13)OCN(C1CCCCC1)C2,pIC50,[6],5.37
same,pIC50,[7],5.42
Cc1ccc2cccc(O)c2n1 [8-HYDROXY QUINALDINE],pKi,[5],< 4.00
Cc1ccc(S(=O)(=O)OCCn2cc(COc3cccc4cccnc34)nn2)cc1,MIC80,Cryptococcus neoformans,2.36 µM
Oc1ccc(C(F)(F)F)c2cccnc12,pKi,[5],6.43
COc1cccc(/C=C/c2ccc3cccc(O)c3n2)c1,MIC,[2],> 200 µM
CC1CC(C)CN(c2nc(Nc3ccc(C#N)c(C(F)(F)F)c3)nc(Oc3cccc4cccnc34)n2)C1 (stereo unspecified),MIC,[2],6 µM
O=S(=O)(Nc1ccc(Cl)cc1)c1ccc(O)c2ncccc12,MIC,Candida,3 µM
Cc1nc2[nH]nc(/N=N/c3ccc(O)c4ncccc34)c2c(C)c1Br,MIC,Bacillus subtilis,19.7 µM
same,MIC,Salmonella sp.,4.91 µM
Oc1cccc2cccnc12 [OXYQUINOLINE],pKi,[5],6.24
Nc1ccc2cccc(O)c2n1,MIC,[2],4.6 µM
Cc1ccc2[nH]c(-c3ccccc3)c(C(NNC(=O)c3ccncc3)c3ccc4cccnc4c3O)c2c1 (stereo unspecified),MIC,[2],100 µM
COc1ccc(CN2CCN(c3nc(Nc4ccc(C#N)cc4)nc(Oc4cccc5cccnc45)n3)CC2)c(OC)c1OC,MIC,Aspergillus,9.8 µM
O=C(O)c1ccc(NC(c2ccccc2)c2ccc3cccnc3c2O)cc1 (stereo unspecified),pIC50,[8],4.52
O=[N+]([O-])c1cc(CN2CCC(c3ccccc3)C2)c(O)c2ncccc12 (stereo unspecified),MBC,Chlamydia,12.5 µM
CNS(=O)(=O)c1cc(Cl)c2cccnc2c1O,pKi,[5],< 4.00
OC(COc1ccccc1)COc1cccc2cccnc12 (stereo unspecified),MIC,[2],42.3 µM
O=C(Nc1ccccc1Br)c1ccc2cccc(O)c2n1,MIC,[2],23 µM
O=C(O)c1ccc2ccc(/C=C/c3ccccc3Cl)nc2c1O,MIC,[2],120 µM
Oc1cccc2ccc(/C=C/c3ccccc3Cl)nc12,MIC,[2],5.8 µM
CC(=O)Oc1c(Br)cc(Br)c2ccc(C)nc12,MIC,Candida albicans,12.5 µM
CNc1ccc2cccc(O)c2n1,MIC,[2],6.4 µM
O=C(NNC(c1ccc2cccnc2c1O)c1c(-c2ccccc2)[nH]c2ccccc12)c1ccncc1 (stereo unspecified),MIC,[2],103 µM

# — ChEMBL document CHEMBL5226349, “Novel Antimicrobial 8-Hydroxyquinoline-Based Agents: Current Development, Structure-Activity Relationships, and Perspectives” (J Med Chem, 2021)
